According to ChEMBL document CHEMBL1144166 (Bioorg Med Chem, 2008):
“And” between values parts separate entries of the source, which are not always exact repeats. Equal values may be shown once.

Columns and labels:
[1] = Inhibition of baboon liver mitochondrial monoamine oxidase B using 50 uM of MMTP by spectrophotometry; set-up: species or system Papio
[2] = Inhibition of baboon liver mitochondrial monoamine oxidase B using 30 to 120 uM of MMTP by spectrophotometry; set-up: species or system Papio
Adenosine receptor A2a = Adenosine receptor A2a (Rattus norvegicus, UniProt P30543)
Description: Displacement of [3H]NECA from Sprague-Dawley rat adenosine A2A receptor by scintillation counting

Papio [3] = test: Inhibition of baboon liver mitochondrial monoamine oxidase B at 1000 uM by spectrophotometry
Papio [4] = test: Inhibition of baboon liver mitochondrial monoamine oxidase B at 30 uM by spectrophotometry

Chain of Adenosine receptor A2a (P30543 whole entry): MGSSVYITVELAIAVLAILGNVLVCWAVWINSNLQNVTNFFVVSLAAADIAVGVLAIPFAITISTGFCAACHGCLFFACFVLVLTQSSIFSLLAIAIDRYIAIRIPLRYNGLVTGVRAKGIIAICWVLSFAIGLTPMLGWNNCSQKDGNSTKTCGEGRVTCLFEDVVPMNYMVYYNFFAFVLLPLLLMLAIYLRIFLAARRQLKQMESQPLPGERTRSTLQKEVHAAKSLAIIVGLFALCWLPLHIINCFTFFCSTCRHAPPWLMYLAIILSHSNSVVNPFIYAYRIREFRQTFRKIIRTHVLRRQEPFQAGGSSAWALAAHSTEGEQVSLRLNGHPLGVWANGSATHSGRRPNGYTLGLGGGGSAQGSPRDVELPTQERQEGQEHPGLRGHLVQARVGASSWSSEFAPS

Row | IC50 [1] | Ki [1] [µM] | Ki [2] [µM] | Ki (Adenosine receptor A2a) [µM] | inhibition (Papio [3]) [%] | SMILES | inhibition (Papio [4]) [%]
1 | 2.37 µM | 1.37 | 1.71 | 0.0135 |  | CCn1c(/C=C/C=C/c2ccccc2)nc2c1c(=O)n(C)c(=O)n2C | 
2 | 0.383 µM | 0.221 | 0.149 | 0.153 |  | Cn1c(=O)c2c(nc(/C=C/C=C/c3ccccc3)n2C)n(C)c1=O | 
3 | 0.089 µM | 0.0514 | 0.0464 | 0.114 |  | Cn1c(=O)c2c(nc(/C=C/C=C/c3cccc(F)c3)n2C)n(C)c1=O | 
4 | 0.0284 µM and 0.0164 µM |  | 0.0189 |  |  | Cn1c(=O)c2c(nc(/C=C/c3ccc(Cl)c(Cl)c3)n2C)n(C)c1=O | 
5 | 0.0963 µM | 0.0556 | 0.0421 | 0.104 |  | Cn1c(=O)c2c(nc(/C=C/C=C/c3cccc(Cl)c3)n2C)n(C)c1=O | 
6 |  |  |  |  | 18 | Cn1c(=O)c2c(nc(Cc3ccccc3)n2C)n(C)c1=O | 
7 |  |  | 97.6 |  |  | Cn1c(=O)c2c(nc(Cc3cccc(C(F)(F)F)c3)n2C)n(C)c1=O | 
8 |  |  |  | 0.00773 |  | CCn1c(=O)c2c(nc(/C=C/C=C/c3ccccc3)n2CC)n(CC)c1=O | 14.6
9 | 0.0379 µM | 0.0219 | 0.0172 | 0.0591 |  | Cn1c(=O)c2c(nc(/C=C/C=C/c3cccc(Br)c3)n2C)n(C)c1=O | 
10 |  |  |  |  | 24 | Cn1c(=O)c2c(nc(-c3cccc(C(F)(F)F)c3)n2C)n(C)c1=O | 
11 |  |  | 86.2 |  |  | Cn1c(=O)c2c(nc(-c3ccccc3)n2C)n(C)c1=O | 
12 | 0.107 µM | 0.0618 | 0.0627 |  |  | Cn1c(=O)c2c(nc(/C=C/c3cccc(Br)c3)n2C)n(C)c1=O | 
13 |  |  | 54.6 |  |  | Cn1c(=O)c2c(nc(Cc3cccc(Cl)c3)n2C)n(C)c1=O | 
14 |  |  | 36 |  |  | Cn1c(=O)c2c(nc(-c3cccc(Cl)c3)n2C)n(C)c1=O | 

Row | SMILES | IC50 [1] | Ki [1] [µM] | Ki [2] [µM] | Ki (Adenosine receptor A2a) [µM] | inhibition (Papio [3]) [%] | inhibition (Papio [4]) [%]
15 | CCn1c(=O)c2c(nc(/C=C/C=C/c3ccccc3)n2C)n(CC)c1=O |  |  |  | 0.00274 |  | 32.7
